# Measurements taken from PubChem BioAssay (NCI).
#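 Protocol summary: plate cells (96-well), add compound at 5 concentrations, incubate 48 h, interpolate endpoints linearly. Definition used: TGI = concentration required for complete inhibition of growth.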
# Key:
# Experiment in all cases: DTP human tumour cell line panel, 48 h
# UO-31 renal = tested on: UO-31 renal
# K-562 leukemia = tested on: K-562 leukemia
# SNB-19 CNS = tested on: SNB-19 CNS
# HOP-62 NSCLC = tested on: HOP-62 NSCLC
# SN12C renal = tested on: SN12C renal
# NCI-H23 lung = tested on: NCI-H23 lung
# OVCAR-5 ovarian = tested on: OVCAR-5 ovarian
# KM12 colon = tested on: KM12 colon
# BT-549 breast = tested on: BT-549 breast
# RXF 393 renal = tested on: RXF 393 renal
# A498 renal = tested on: A498 renal
# MDA-MB-231 breast = tested on: MDA-MB-231 breast
# LOX IMVI melanoma = tested on: LOX IMVI melanoma
# MOLT-4 leukemia = tested on: MOLT-4 leukemia
# HT29 colon = tested on: HT29 colon
# DU-145 prostate = tested on: DU-145 prostate
# MDA-MB-435 = tested on: MDA-MB-435
# M14 melanoma = tested on: M14 melanoma
# ACHN renal = tested on: ACHN renal
# CCRF-CEM leukemia = tested on: CCRF-CEM leukemia
# HCT-15 colon = tested on: HCT-15 colon
# PC-3 prostate = tested on: PC-3 prostate
# SF-539 CNS = tested on: SF-539 CNS
# SNB-75 CNS = tested on: SNB-75 CNS
# SW-620 colon = tested on: SW-620 colon
# SK-MEL-28 melanoma = tested on: SK-MEL-28 melanoma
# IGROV1 ovarian = tested on: IGROV1 ovarian
# NCI/ADR-RES ovarian = tested on: NCI/ADR-RES ovarian
# SK-MEL-5 melanoma = tested on: SK-MEL-5 melanoma
# HS 578T breast = tested on: HS 578T breast
# SK-OV-3 ovarian = tested on: SK-OV-3 ovarian
# NCI-H460 lung = tested on: NCI-H460 lung
# SR leukemia = tested on: SR leukemia
# SF-295 CNS = tested on: SF-295 CNS
# OVCAR-4 ovarian = tested on: OVCAR-4 ovarian
# SK-MEL-2 melanoma = tested on: SK-MEL-2 melanoma
# HCT-116 colon = tested on: HCT-116 colon
# SF-268 CNS = tested on: SF-268 CNS
# EKVX NSCLC = tested on: EKVX NSCLC
# MCF7 breast = tested on: MCF7 breast
# CAKI-1 renal = tested on: CAKI-1 renal
# MDA-N = tested on: MDA-N
# OVCAR-8 ovarian = tested on: OVCAR-8 ovarian
# T-47D breast = tested on: T-47D breast
# UACC-62 melanoma = tested on: UACC-62 melanoma
# COLO 205 colon = tested on: COLO 205 colon
# UACC-257 melanoma = tested on: UACC-257 melanoma
# OVCAR-3 ovarian = tested on: OVCAR-3 ovarian
# A549 NSCLC = tested on: A549 NSCLC
# 786-0 renal = tested on: 786-0 renal
# NCI-H522 lung = tested on: NCI-H522 lung
# TK-10 renal = tested on: TK-10 renal
# MALME-3M melanoma = tested on: MALME-3M melanoma
# RPMI-8226 leukemia = tested on: RPMI-8226 leukemia
# U251 CNS = tested on: U251 CNS
# HL-60(TB) leukemia = tested on: HL-60(TB) leukemia
smiles,measurement,setting,value
C/C(=N\Nc1nc2ccccc2o1)c1ccc2ccccc2n1,TGI,UO-31 renal,14.4 µM
same,TGI,K-562 leukemia,> 100 µM
same,TGI,SNB-19 CNS,> 100 µM
same,TGI,HOP-62 NSCLC,58.7 µM
same,TGI,SN12C renal,56.8 µM
same,TGI,NCI-H23 lung,70.7 µM
same,TGI,OVCAR-5 ovarian,> 100 µM
same,TGI,KM12 colon,> 100 µM
same,TGI,BT-549 breast,> 100 µM
same,TGI,RXF 393 renal,57.5 µM
same,TGI,A498 renal,8.64 µM
same,TGI,MDA-MB-231 breast,> 100 µM
same,TGI,LOX IMVI melanoma,> 100 µM
same,TGI,MOLT-4 leukemia,> 100 µM
same,TGI,HT29 colon,95.9 µM
same,TGI,DU-145 prostate,37.3 µM
same,TGI,MDA-MB-435,> 100 µM
same,TGI,M14 melanoma,> 100 µM
same,TGI,ACHN renal,10.6 µM
same,TGI,CCRF-CEM leukemia,5.77 µM
same,TGI,HCT-15 colon,59.9 µM
same,TGI,PC-3 prostate,4.94 µM
same,TGI,SF-539 CNS,> 100 µM
same,TGI,SNB-75 CNS,28 µM
same,TGI,SW-620 colon,> 100 µM
same,TGI,SK-MEL-28 melanoma,> 100 µM
same,TGI,IGROV1 ovarian,5.32 µM
same,TGI,NCI/ADR-RES ovarian,26.5 µM
same,TGI,SK-MEL-5 melanoma,14.3 µM
same,TGI,HS 578T breast,> 100 µM
same,TGI,SK-OV-3 ovarian,> 100 µM
same,TGI,NCI-H460 lung,30.6 µM
same,TGI,SR leukemia,3.72 µM
same,TGI,SF-295 CNS,56.5 µM
same,TGI,OVCAR-4 ovarian,5.59 µM
same,TGI,SK-MEL-2 melanoma,15.2 µM
same,TGI,HCT-116 colon,20.1 µM
same,TGI,SF-268 CNS,49.2 µM
same,TGI,EKVX NSCLC,9.23 µM
same,TGI,MCF7 breast,> 100 µM
same,TGI,CAKI-1 renal,3.93 µM
same,TGI,MDA-N,> 100 µM
same,TGI,OVCAR-8 ovarian,63.5 µM
same,TGI,T-47D breast,3.87 µM
same,TGI,UACC-62 melanoma,44.4 µM
same,TGI,COLO 205 colon,> 100 µM
same,TGI,UACC-257 melanoma,> 100 µM
same,TGI,OVCAR-3 ovarian,3.03 µM
same,TGI,A549 NSCLC,> 100 µM
same,TGI,786-0 renal,45.7 µM
same,TGI,NCI-H522 lung,5.83 µM
same,TGI,TK-10 renal,68.5 µM
same,TGI,MALME-3M melanoma,52.5 µM
same,TGI,RPMI-8226 leukemia,6.41 µM
same,TGI,U251 CNS,87.2 µM
same,TGI,HL-60(TB) leukemia,6.47 µM
